Assay results as given in paper PMC7073886, “Structure–Bioactivity Relationships of Lapatinib Derived Analogs against Schistosoma mansoni” (ACS Medicinal Chemistry Letters, 2020).

What was measured:
adult S. mansoni = assay: Phenotypic screen of adult S. mansoni worms, severity scores and descriptors; type: cell-based, Schistosoma mansoni; conditions: for Descriptors (10 µM) 1 h / Severity Scores (10 μM) 1 h / Descriptors (10 µM) 5 h / Severity Scores (10 μM) 5 h / Descriptors (10 µM) 24 h / Severity Scores (10 μM) 24 h / Descriptors (10 µM) 48 h / Severity Scores (10 μM) 48 h: adult S. mansoni; for Descriptors (10 µM) 1 h / Descriptors (10 µM) 5 h / Descriptors (10 µM) 24 h / Descriptors (10 µM) 48 h: phenotypic descriptors; for Severity Scores (10 μM) 1 h / Severity Scores (10 μM) 5 h / Severity Scores (10 μM) 24 h / Severity Scores (10 μM) 48 h: scale 0 (no activity) to 4 (maximal activity); for bioactivity against adult S. mansoni: adult schistosomes; for Severity Scores (10 μM) 1 h / Severity Scores (10 μM) 5 h / Severity Scores (10 μM) 24 h / bioactivity against adult S. mansoni / Severity Scores (10 μM) 48 h: 10 μM
Source text: Because the schistosome parasite can present multiple and dynamic phenotypic responses to chemical insult,[16] we employ a constrained nomenclature of descriptors to describe the changes in the parasite as a function of time and concentration (e.g., motility, density, and shape; and in the case of the adult parasite, an inability to adhere to the bottom of the assay dish). These descriptors are converted into severity scores on a scale of 0 (green)–4 (severest/red) that allow for partially quantitative comparisons of compound effects.[1]−[19] […] The descriptors themselves and their respective scores are detailed in the Supporting Information, Table S1. Severity score data are presented in the results (with the corresponding descriptors detailed in the Supporting Information, Tables S2–S8), and eight new analogs developed and synthesized in support of this effort are described. Finally, absorption, distribution, metabolism and excretion (ADME) data of all compounds presented in this work are reported in the Supporting Information, Table S15.
Table S1. Descriptors and associated severity scores used for S. mansoni adults.
R (rounded or shape altered 1
On sides (adults unable to 1
Shrunk (adults are shorter 1
surface (tegument) of adults)
dfailed to create analytical method
Maintenance of the Schistosoma mansoni life cycle (NMRI isolate), the preparation of adult worms (≥ 42-
days-old), and their co-incubation with test compounds were as described.7-9 Phenotypic responses were
visually recorded using a constrained nomenclature and converted to severity scores on a scale from zero
(no activity) to 4 (maximal activity).8, 9 Use of hamsters for maintaining the S. mansoni life-cycle was
approved by the Institutional Animal Care and Use Committee of the University of California San Diego.
The human myelomonocytic cell line THP -1 was grown at 37 °C and 5% CO2 in RPMI-1640 supplemented
with 10% iFBS, 2 mM glutamate, 100 U/mL penicillin and […] streptomycin.
Drug toxicity to HepG2 cells .10 HepG2 cells line were obtained from the American Type Culture
Collection and cultured in Minimal Essential Medium (MEM) supplemented with 0.19% sodium
bicarbonate, 10% Fetal Bovine Serum, 2 mM L -glutamine, 0.1 mM MEM non-essential amino, 0.009
mg/mL insulin, 1.76 mg/mL bovine serum albumin. The viability of the cells was measured using the MTT
(thiazolyl blue reduction) method. Briefly, ninety -six-well plates were seeded with 2.5 × 10^4 cells/well in
170 ml of culture medium and incubated overnight in 5% CO 2 at 37 °C. Cells were exposed to different
experimental compounds in DMSO. After 48 hours incubation, the viability of the cells was assessed using
MTT (thiazolyl blue reduction) as a dose response assay (11 two -fold serial dilutions) to obtain a calculated
IC50 determination. 4-Azaindolo[2,1-b]quinazoline-6,12-dione is used as a toxicity positive control and
each assay plate includes the following 3 additional controls: a) background control: no cells and no drug
was added, b) target control: cells added but no drugs, and c) DMSO control: same as the target control
except the culture media contains 0.6% DMSO. Absorbance was determined in all wells using a Perkin
Elmer, Ensight plate reader. The fifty percent inhibitory concentrations (IC50’s) were determined using
GraphPad Prism nonlinear regr ession (sigmoidal dose -response, variable slope) equation .
ADME Experiment Protocols
Aqueous pH 7.4 Solubility. Compounds were dried down from 10 mM DMSO solutions using centrifugal
evaporation technique. Phosphate buffer (0.1 M pH 7.4) was added and StirStix were inserted in the glass
vials, with shaking then performed at a constant temperature of 25 °C for 20 -24 h. This step was followed
by double centrifugation with a tip wash in between, to ensure that no residues of the dried compounds
interfere. The solutions were diluted before analysis and quantification using LC/MS/MS was performed.

Rat hepatocyte Clint = type: in vitro ADME; conditions: rat hepatocytes, intrinsic clearance; read-out: RH CLint
[1] = Log D7.4 shake-flask octanol-water; type: physicochemical; conditions: pH 7.4
Experimental: Log D7.4. Shake-flask octanol-water distribution coefficient was determined at pH 7.4 (Log D7.4). The aqueous solution used is 10 mM sodium phosphate pH 7.4 buffer. The method has been validated for Log D7.4 ranging from -2 to 5.0.
Human Plasma Protein Binding (PPB). PPB was determined using equilibrium dialysis (RED device) to separate free from bound compound. The amount of compound in plasma (10 µM initial concentration) and in dialysis buffer (pH 7.4 phosphate buffer) was measured by LC-MS/MS after equilibration at 37 °C in a dialysis chamber. The fraction unbound (fu) is reported.
Human Liver Microsomal Clint. In vitro intrinsic clearance was determined from human liver microsomes using a standard approach.11 Following incubation and preparation, the samples were analyzed using […]
Rat Hepatocyte Clint. In vitro intrinsic clearance was determined from rat hepatocytes using a standard approach.11 Following incubation and preparation, the samples were analyzed using LC/MS/MS. Refined […]
Calculated LogP and LogD values. Both LogP and LogD predictions are based on a modified version of the method12 where the predicted partition coefficients are composed of the molecules’ atomic increments.
General Chemistry. All starting materials were commercially obtained and were used without further purification, unless specified. Reaction solvents were purified by passage through alumina columns on a purification system manufactured by Innovative Technology (Newburyport, MA). NMR spectra were obtained on Varian NMR systems, operating at 400 or 500 MHz for 1 H acquisitions. LCMS analysis was performed using a Waters AllianceHT e2795 reverse phase HPLC (Waters SunFire C18 4.6 × 50 mm, 3.5 μm column), with a Waters 2996 photodiode array detector scanning from 210 nm to 600 nm, and Waters Micromass ZQ detector (electrospray ionization). Where required, final compounds were purified by preparative reverse phase HPLC (columns Waters Symmetry RP8 30 × 50 mm, 5 μm column, or OBD RP18 30 × 50 mm, 5 μm), with a single wavelength UV−visible detector and Waters Micromass ZQ (electrospray ionization).

SMILES | Descriptors (10 µM) 1 h (adult S. mansoni) | Severity Scores (10 μM) 1 h (adult S. mansoni) | Descriptors (10 µM) 5 h (adult S. mansoni) | Severity Scores (10 μM) 5 h (adult S. mansoni) | Descriptors (10 µM) 24 h (adult S. mansoni) | Severity Scores (10 μM) 24 h (adult S. mansoni) | bioactivity against adult S. mansoni (adult S. mansoni) | hepatocyte CLint (Rat hepatocyte Clint) | logD [1] | Descriptors (10 µM) 48 h (adult S. mansoni) | Severity Scores (10 μM) 48 h (adult S. mansoni)
CN1CCN(c2ncc(-c3ccc4c(N[C@@H]5CCCC[C@H]5O)ccnc4c3)cn2)CC1 [S1c] | none | 0 | none | 0 | none | 0 | no significant bioactivity | 8.1 µL/min/1e6 cells | 1.7 |  | 
CN1CCN(c2ncc(-c3ccc4c(NC5CCC(N(C)C)CC5)ccnc4c3)cn2)CC1 (centres unmarked) [S1a] | none | 0 | none | 0 | none | 0 | no significant bioactivity | 4.2 µL/min/1e6 cells | 0.3 |  | 
CN1CCN(c2ncc(-c3ccc4c(Nc5cnccn5)ccnc4c3)cn2)CC1 [compound 3] | none | 0 | none | 0 | none | 0 | no bioactivity |  |  | none | 0
CN1CCN(c2ncc(-c3ccc4c(NC5CCOCC5)ccnc4c3)cn2)CC1 [S1d] | none | 0 | none | 0 | none | 0 | no significant bioactivity |  | 1.7 | none | 0
CN1C[C@H]2C[C@@H]1CN2c1ncc(-c2ccc3c(Nc4cnccn4)ccnc3c2)cn1 [4a] | none | 0 | none | 0 |  | 1 | minimal bioactivity was observed after 48 h | 17 µL/min/1e6 cells | 2.2 |  | 1
COc1ccc(NC(=O)c2ccc(-c3cnc(N4CCCN(C)CC4)nc3)cc2O)cc1Cl [7b] | none | 0 |  | 1 |  | 2 | minimal bioactivity after 5 h and potent activity after 48 h | 120 µL/min/1e6 cells | 3.4 |  | 4
CN1CCN(c2ncc(-c3ccc4c(NCCN5CCCC5)ccnc4c3)cn2)CC1 [S1b] | none | 0 | none | 0 | none | 0 | no significant bioactivity | 1 µL/min/1e6 cells | 1.2 |  | 1
Cc1c(-c2cnc(N3CCN(C)CC3)nc2)ccc2c(Nc3cnccn3)ccnc12 [9a] | none | 0 | none | 0 |  | 1 | moderate potency after 24 h | 52 µL/min/1e6 cells | 3.3 |  | 2
O=C(O)CN1CCN(c2ncc(-c3ccc4c(Nc5cnccn5)ccnc4c3)cn2)CC1 [3b] | none | 0 | none | 0 | none | 0 | no bioactivity | 8.9 µL/min/1e6 cells | 0.7 | none | 0
CN1CCN(c2ncc(-c3ccc4c(NCC5CCOCC5)ccnc4c3)cn2)CC1 [S1e] | none | 0 | none | 0 | none | 0 | no significant bioactivity | 23 µL/min/1e6 cells | 2 |  | 1
CN1CCCN(c2ncc(-c3ccc4c(Nc5cnccn5)ccnc4c3)cn2)CC1 [4d] | none | 0 | none | 0 | none | 0 | complete loss in activity | 54 µL/min/1e6 cells | 2.6 | none | 0
CCN1CCCN(c2ncc(-c3ccc4c(Nc5cnccn5)ccnc4c3)cn2)CC1 [4e] | none | 0 | none | 0 | none | 0 |  | 30 µL/min/1e6 cells | 2.7 | none | 0
Cc1cnc(Nc2ccnc3cc(-c4cnc(N5CCCN(C)CC5)nc4)ccc23)cn1 [5b] | none | 0 | none | 0 | Dark, S, on sides | 3 | bioactivity recorded after 24 h | 24 µL/min/1e6 cells | 2.9 |  | 4
